Here are results for 10 compounds from patent publication US9067892B2, “Spiroheterocyclic N-oxypiperidines as pesticides” (Syngenta Crop Protection, Inc., priority 2008, dated 2015).

Like-named read-outs stand apart in the source and are kept apart here.

The test system of data set [1] is Myzus persicae (green peach aphid). Nature of the data set: Example B14: drench activity against Myzus persicae in field soil, persistence, comparison with state of the art. It is filed as in vivo. To be noted: for mortality at 12.5 ppm: Myzus persicae, soil, pepper plants in field soil, read-out: Mortality (%) xx days after application (drench, systemic action, persistence). As to the method:
(§1) Six weeks old pepper plants cultivated in field soil are treated as drench application at various rates (mg a.i./liter soil). The same day, plants are infested with a mixed population of M. persicae and incubated in the greenhouse under optimal greenhouse conditions. Samples are assessed 7 days after infestation on mortality. Treated plants are re-infested 7, 14, 21 and 28 days after application. Evaluation is always done 7 days after infestation. Plants are also checked for damage (phytotoxicity), visual assessment being made using a 0-100% rating scale (100%=total damage to plant; 0%=no damage to plant).

The next data set has as its system pepper plants. To be noted: in vivo. How it is done:
as §1

Data set [2] relates to Thrips Tabaci (onion thrips). Put plainly: Example B3: Thrips tabaci, mixed population, feeding/residual contact activity, preventive. It is filed as in vivo. The note with it: foliar, 144 h, sunflower leaf discs sprayed, 6 days incubation, mortality.
Data set [3] has as its system Tetranychus urticae (two-spotted spider mite). Nature of the data set: Example B4: Tetranychus urticae, mixed population, feeding/residual contact activity, preventive. It is filed as in vivo. To be noted: foliar, 192 h, bean leaf discs sprayed, 8 days, egg, larval and adult mortality. The text has this: Activity Against Tetranychus urticae (Two-Spotted Spider Mite) (Mixed Population, Feeding/Residual Contact Activity, Preventive) Bean leaf discs on agar in 24-well microtiter plates are sprayed with test solutions. […] 8 days later, discs are checked for egg mortality, larval mortality, and adult mortality.

For data set [4], the system named is Nilaparvata lugens (brown rice planthopper). Put plainly: Example B8: Nilaparvata lugens, larvicide, feeding/contact. It is filed as in vivo. The note with it: rice seedlings sprayed, N3 nymphs, 6-12 days after treatment. How it is done:
Activity Against Nilaparvata lugens (Brown Rice Planthopper) (Larvicide, Feeding/Contact) Rice seedlings are treated with the diluted test solutions in a spray chamber. After drying, they are infested with 20 N3 nymphs (2 replicates). 6-12 days after the treatment samples are checked for mortality, growth regulation, and effects on the F1 generation.

In data set [5] the test system is Aphis craccivora (cowpea aphid). Nature of the data set: Example B10: Aphis craccivora, mixed population, systemic/feeding. The note with it: 144 h, roots of infested pea seedlings in test solution, 6 days, mortality. It is filed as in vivo. From the text:
6 days later, samples are checked for mortality.

The test system is the same in data set [6]. Nature of the data set: Example B11: translaminar activity against Aphis craccivora. It is filed as in vivo. To be noted: 120 h, French bean leaves, aphids on lower side, upper side painted, 5 days, mortality. As to the method: Translaminar Activity Against Aphis craccivora (Cowpea Aphid) French bean leaves (Phaseolus vulgaris) are infested with about 20 mixed age individuals on the lower leaf side using clip cages. 1 day after the infestation, the upper side of the leaves is treated with the test solution by painting. 5 days later, samples are checked for mortality.

Data set [7] concerns Myzus persicae (green peach aphid). Nature of the data set: Example B13: drench activity against Myzus persicae. It is filed as in vivo. To be noted: 168 h, pea seedlings in field soil, 7 days after infestation, mortality. As to the method: Drench Activity Against Myzus persicae (Green Peach Aphid) Pea seedlings cultivated in field soil are treated as drench application and infested with a mixed population of M. persicae. 7 days after infestation, samples are checked for mortality.

The subject of data set [8] is Aphis craccivora (cowpea aphid). Put plainly: Example B15: Aphis craccivora, mixed population, adjuvant effect, curative. To be noted: for Abbott's efficacy (%) against Aphis craccivora: 3 ppm, formulated as EC050, adjuvant 0.1% (v/v) where named, broad bean plants, 7 days after treatment. It is filed as in vivo. How it is done: One day after infestation, plants are treated with diluted test solutions of the compound formulated as EC050 in a spray chamber (4 replicates). […] Efficacy was calculated with the aid of Abbott's formula.

Data set [9] relates to Myzus persicae (green peach aphid). Put plainly: Example B16: Myzus persicae on pepper plants, feeding/residual contact activity. It is filed as in vivo. The note with it: 144 h, infested pepper plants sprayed, 6 days after treatment, mortality, read-out: activity against Myzus persicae.
Data set [10] has the same test system. Nature of the data set: Example B2: Myzus persicae, mixed population, systemic/feeding activity, curative. To be noted: 144 h, read-out: activity.
Data set [11] shares this test system. Put plainly: Example B1: Myzus persicae, mixed population, feeding/residual contact activity, preventive. To be noted: foliar, 144 h, read-out: activity.
[12] abbreviates: 0 days after application (infestation day; evaluated 7 days after infestation).
[13] abbreviates: 14 days after application (re-infestation; evaluated 7 days after infestation).
[14] abbreviates: 21 days after application (re-infestation; evaluated 7 days after infestation).
Where [15] appears, read: 28 days after application (re-infestation; evaluated 7 days after infestation).
The mark [16] stands for this setting: 168 h, 7 days after application (re-infestation; evaluated 7 days after infestation).

Usually mortality stands for the percentage killed. For `CCOC(=O)OC1=C(c2c(C)cc(C)cc2C)C(=O)NC12CCN(OC)CC2` [A18, reference compound], the mortality at 12.5 ppm in data set [1] (setting [12]) turned out to be 100%; in [1] (setting [13]), 98%; in data set [1] (setting [14]), 95%; in data set [1] (setting [15]), 95%; in data set [1] (setting [16]) it was 100%. For the same compound, the “plant compatibility on pepper plants (in words)” value with pepper plants is “damages these to an untolerable high extend”.
With `CCOC(=O)OC1=C(c2c(C)cc(C)cc2C)C(=O)N(C)C12CCN(OC)CC2` [P1.2, Carbonic acid ethyl ester 8-methoxy-1-methyl-2-oxo-3-(2,4,6-trimethyl-phenyl)-1,8-diaza-spiro[4.5]dec-3-en-4-yl ester], the pest or weed control at 400 ppm in data set [2], in data set [3], in data set [4], in data set [5], in [6] and in data set [10] was greater than 80% each time. Moreover, the pest or weed control at 400 ppm in [11] is greater than 80%. Besides, in [7], the pest or weed control at 25 ppm is greater than 80%. In addition, the mortality at 12.5 ppm in [1] (setting [12]) was 98%; in [1] (setting [13]), 98%; in data set [1] (setting [14]) it was 100%; in [1] (setting [15]), 98%; in [1] (setting [16]) it was 98%. The “insecticidal action on Myzus persicae (in words)” value in data set [1] (summary of Table B14, drench) was “very similar to the action of the compound of the state of the art”. Besides, the “plant compatibility on pepper plants (in words)” value in the data set with pepper plants is reported as “no damage at all”. Besides, the “Abbott's efficacy (%) against Aphis craccivora” value is on record as 54% in data set [8] (Table B15A) and 25% in data set [8] (Table B15B). In data set [8] (summary of Tables B15A and B15B), the “effect of adjuvants on insecticidal activity (in words)” value is given as “enhance the insecticidal activity of compound P1.2 significantly”. The pest or weed control at 200 ppm in data set [9] was no less than 80%.
In the case of `CCOC(=O)OC1=C(c2c(C)cc(C)cc2C)C(=O)N(COC)C12CCN(OC)CC2` [P1.3], the pest or weed control at 400 ppm in data set [2], in data set [3], in [4], in data set [5], in [6] and in data set [10] was greater than 80% each time. Besides, the pest or weed control at 400 ppm in data set [11] was greater than 80%. The pest or weed control at 25 ppm in [7] is greater than 80%.
Regarding `CCOCN1C(=O)C(c2c(C)cc(C)cc2C)=C(OC(=O)OCC)C12CCN(OC)CC2` [P1.4], the pest or weed control at 400 ppm in data set [4], in [5], in [6], in [10] and in [11] was greater than 80% in each case. In addition, in data set [7], the pest or weed control at 25 ppm is greater than 80%. In [9], the pest or weed control at 200 ppm is no less than 80%.
For the compound `CCOC(=O)OC1=C(c2c(C)cc(C)cc2Br)C(=O)N(C)C12CCN(OC)CC2` [P1.11], the pest or weed control at 400 ppm in data set [4], in [5], in data set [6], in [10] and in data set [11] was greater than 80% each time. For the same compound, the pest or weed control at 25 ppm in data set [7] was greater than 80%. In addition, the pest or weed control at 200 ppm in data set [9] is no less than 80%.
On to `CCOC(=O)OC1=C(c2c(C)cc(C)cc2C)C(=O)N(COCCOC)C12CCN(OC)CC2` [P1.18], for which the pest or weed control at 400 ppm in [2], in data set [3], in data set [4], in data set [5], in data set [6] and in data set [10] was greater than 80% throughout. For the same compound, in data set [11], the pest or weed control at 400 ppm was greater than 80%. Moreover, the pest or weed control at 25 ppm in data set [7] was greater than 80%.
In the case of `CON1CCC2(CC1)C(O)=C(c1c(C)cc(C)cc1C)C(=O)N2C` [P2.2, 4-hydroxy-8-methoxy-1-methyl-3-(2,4,6-trimethyl-phenyl)-1,8-diaza-spiro[4.5]dec-3-en-2-one], the pest or weed control at 400 ppm in [2], in data set [3], in [4], in data set [5], in data set [6] and in [10] was greater than 80% in each case. For the same compound, the pest or weed control at 400 ppm in data set [11] is greater than 80%. For the same compound, the pest or weed control at 25 ppm in [7] was greater than 80%. Further, in data set [9], the pest or weed control at 200 ppm was no less than 80%.
With `COCN1C(=O)C(c2c(C)cc(C)cc2C)=C(O)C12CCN(OC)CC2` [P2.6], the pest or weed control at 400 ppm in [2], in data set [3], in data set [4], in data set [5], in data set [6] and in [10] was greater than 80% each time. Further, in data set [11], the pest or weed control at 400 ppm is greater than 80%. This compound displayed a pest or weed control at 25 ppm in [7] greater than 80%. Besides, in [9], the pest or weed control at 200 ppm is no less than 80%.
Consider `CON1CCC2(CC1)C(O)=C(c1c(C)cc(C)cc1Br)C(=O)N2C` [P2.14], for which the pest or weed control at 400 ppm in [3], in data set [4], in data set [5], in data set [6] and in [11] was greater than 80% each time. The compound also displayed a pest or weed control at 25 ppm in [7] greater than 80%.
As to `COCCOCN1C(=O)C(c2c(C)cc(C)cc2C)=C(O)C12CCN(OC)CC2` [P2.19], the pest or weed control at 400 ppm in data set [2], in data set [3], in data set [4], in data set [5], in data set [6] and in data set [10] was greater than 80% throughout. The pest or weed control at 400 ppm in data set [11] is greater than 80%. Besides, the pest or weed control at 25 ppm in data set [7] is greater than 80%.
